pEC50: −log10 of the molar value. Where a SMILES comes first, the peptide text is derived from it. Bridges are numbered along the chain shown (N, C = ends).
Experiments:
[1] = tested on: p21 Thr145 phosphorylation, survivin expression, AKT activation; assay: Western blot of intracellular events (AKT, phospho-p21 Thr145, survivin); type: cell-based
Description: This was confirmed using the LIVE&DEAD^TM cell viability assay that provides a visual readout of cell integrity (Figure 8A lower panel). This cellular effect was also analyzed after treatment of WT or CK2β-depleted MCF-10A cells with increasing concentrations of TAT-Pc 13. TAT-Pc 13 caused a cell death in both cell types, which was already detectable at a concentration of 25 µM and became massive at 50–60 µM (Figure 8B). […] In order to investigate the intracellular events induced by TAT-Pc 13, MCF-10A cells were incubated with increasing concentrations of TAT-Pc 13 and analyzed by Western blot.
Figure 8 Cellular effects of TAT-Pc 13. (A) MCF-10A cells were incubated with 25 µM of TAT-Pc 13 for 3 h and imaged with phase microscopy (upper panel) or with increasing concentrations of TAT-Pc 13 for 2 h and cell viability was evaluated using the LIVE&DEAD™ assay. Live cells fluoresce bright green (530 nm), whereas dead cells fluoresce red-orange (645 nm) (lower panel, scale bare: 100 µm); (B) WT (○-○) or CK2β-depleted (●-●) MCF-10A cells were incubated for 4 h with increasing concentrations of TAT-Pc 13 and cell death was evaluated using the LIVE&DEAD™ assay recording fluorescence at 645 nm. Representative data shown from two independent experiments in duplicate; (C) MCF-10A cells were pre-treated in the absence or presence of 20 µM z-VAD for 5 h and then incubated for 4 h with 25 µM random TAT-Pc 13 or TAT-Pc 13 and cell viability was evaluated as in (A) (scale bare: 100 µm); and (D) intracellular events induced by increasing concentrations of TAT-Pc 13. After 12 h of treatment, 786-O cells were lysed and analyzed by Western blot. TEXT PRINTED IN THE PICTURE: (B) TAT-Pc 13: TAT-Pc 13 (μM): 48; TAT-Pc 13 (μM): 60 DOUBTS OF THE COPYIST ABOUT THIS PICTURE: Panel B: 48 and 60 are printed in red at the x axis, where dashed lines drop from the two curves at about 50 on the Cell death (%) axis. No measure name (e.g. IC50) is printed with them. […]

CK2α = biological target: T1, CK2α (Homo sapiens, UniProt P68400); assay: Thermal shift assay in cell lysates; type: binding
T1 construct: endogenous in cells; host or cells: MCF-10A (CK2β-silenced by pLKO1 lentiviral shRNA; WT as comparison)
T1 sequence (P68400 whole entry): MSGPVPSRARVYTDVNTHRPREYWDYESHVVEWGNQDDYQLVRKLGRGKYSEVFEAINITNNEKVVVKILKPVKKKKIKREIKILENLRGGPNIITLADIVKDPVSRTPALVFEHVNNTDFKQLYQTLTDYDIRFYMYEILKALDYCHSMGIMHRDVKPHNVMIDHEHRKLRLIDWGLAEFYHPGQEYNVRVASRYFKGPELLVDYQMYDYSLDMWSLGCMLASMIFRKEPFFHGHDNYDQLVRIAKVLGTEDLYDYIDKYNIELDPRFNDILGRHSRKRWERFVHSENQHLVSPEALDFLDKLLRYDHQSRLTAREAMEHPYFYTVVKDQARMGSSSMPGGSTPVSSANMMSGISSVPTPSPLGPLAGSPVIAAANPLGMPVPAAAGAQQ
Description: Thermal shift assay (TSA) is based on the biophysical principle of ligand-induced thermal stabilization of target proteins. This assay can be used to detect protein–ligand interactions in complex cell extracts. Therefore, we have generated thermal melting curves from cell extracts, in which the extent of CK2 unfolding was measured. The assays were performed on WT or CK2β-depleted MCF-10A cell extracts incubated with 50 µM of TAT or TAT-Pc 13 and exposed to increasing temperatures.
Figure 5 Thermal shift assay in cell lysates. CK2β-depleted MCF-10A cell lysates were treated with 50 µM TAT or TAT-Pc 13 (A), or with PBS (Phosphate-buffered saline) or CK2β (B) for 30 min at room temperature. The respective lysates were divided into 20 µL aliquots and heated individually at different temperatures for 3 min. After centrifugation, the supernatants were assayed for CK2 activity with the CK2β-independent peptide substrate. Representative data shown from two independent experiments in duplicate.
CK2β-depleted MCF-10A cell lysates prepared in 50 mM Tris-HCl pH 7.5, 150 mM NaCl, and 2% glycerol supplemented with Complete Protease Inhibitor Cocktail (Sigma, #P8340) were divided into four aliquots with two being treated with 50 µM TAT or […] and the other two aliquots with CK2β or PBS (control). […]

CK2 holoenzyme = biological target: T2, CK2 holoenzyme (Homo sapiens, UniProt P68400); assay: CK2 kinase assay with CK2β-independent peptide substrate; type: biochemical; conditions: CK2 holoenzyme 100 nM, 15 min at 4 °C; at high TAT-Pc 13 concentrations
T2 construct: made in house
T2 sequence (P68400 whole entry): as above
Description: Figure 4 Inhibitory activity of a TAT-Pc analogue in vitro. (A) CK2 holoenzyme (100 nM) was incubated in the presence of increasing concentrations of TAT-Pc 13 for 15 min at 4 °C. CK2 activity was then determined with CK2β-dependent or independent peptide substrates; (B) [^35S]-labeled CK2α was incubated with biotinylated MBP-CK2β immobilized on streptavidin coated plates (preformed complex) in the absence (1) or presence (2) of TAT-Pc 13. Alternatively, [^35S]-labeled CK2α was incubated with TAT-Pc 13 (3) or random TAT-Pc 13 (4) and then with immobilized biotinylated MBP-CK2β. After washing, the amount of [^35S]-labeled CK2α remaining in the complex was determined by radioactivity counting. Representative data shown from two independent experiments. Results are presented as mean ± s.d. of triplicates.
CK2 kinase assays were performed in a phosphorylation buffer containing recombinant CK2α (36 ng) or recombinant CK2 holoenzyme (50 ng) and a mixture containing 10 mM MgCl2 and 1 μCi of [γ-32P]ATP and 0.15 M NaCl in the presence of 0.2 mM of the CK2β-independent substrate […] [28] or the CK2β-dependent substrate […] [18]. […] Kinase reactions were terminated by the addition of 60 μL of 4% trichloroacetic acid and sample adsorption on phosphocellulose P81 paper, which were washed in 0.5% phosphoric acid and counted in a scintillation counter.

## CC[C@H](C)[C@@H]1NC(=O)[C@H](CCCCN)NC(=O)[C@H](Cc2ccccc2)NC(=O)CNC(=O)[C@H](Cc2ccc(O)cc2)NC(=O)[C@H](CC(C)C)NC(=O)[C@H](CCCNC(=N)N)NC(=O)CNC(=O)CNC(=O)[C@@H](NC(=O)[C@H](CCC(N)=O)NC(=O)[C@@H]2CCCN2C(=O)[C@@H]2CCCN2C(=O)[C@H](CCCNC(=N)N)NC(=O)[C@H](CCCNC(=N)N)NC(=O)[C@H](CCCNC(=N)N)NC(=O)[C@H](CCC(N)=O)NC(=O)[C@H](CCCNC(=N)N)NC(=O)[C@H](CCCNC(=N)N)NC(=O)[C@H](CCCCN)NC(=O)[C@H](CCCCN)NC(=O)[C@H](CCCNC(=N)N)NC(=O)CN)CCCCNC(=O)CNC(=O)CNC(=O)[C@H](Cc2c[nH]cn2)NC1=O [TAT-Pc 13] (H-GRKKRRQRRRPPQKGGRLYGFKIHGG; lactam 14-C; N-terminus assumed)
[1]; 12 h treatment, text says MCF-10A cells, Figure 8D legend says 786-O cells, read-out: EC50, phosphorylation of p21 on Thr145 and decrease of survivin expression
  pEC50: 4.82
[1]; increasing concentrations, 12 h
  AKT activation: no sign of AKT activation
CK2α; CK2β-depleted MCF-10A cell extracts, 50 µM peptide, 30 min at room temperature, 3 min heating, read-out CK2 activity
  shift in the melting curves: 4 °C
CK2α; extracts from WT MCF-10A cells, not shown
  thermal shift in WT cell extracts: no thermal shift
CK2 holoenzyme
  CK2β-independent peptide phosphorylation: significantly stimulated
